In ChEMBL document CHEMBL1201862, “PubChem BioAssay data set” (2004):
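Following 48 hours of exposure in 96-well plates, responses at five concentrations were used to interpolate endpoints linearly. GI50 marks 50% less growth.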 Activity calls are given as the source filed them. Rule as the data show it: active = GI50 up to about 1.1 µM and inactive = higher.

What was measured:
Experiment in all cases: NCI anticancer screen, dose series, 48 h
[1] = tested on: DMS-114
[2] = tested on: XF498
[3] = tested on: SNB-78
[4] = tested on: M19-MEL
[5] = tested on: LXFL 529
[6] = tested on: BT-549
[7] = tested on: DMS-273
[8] = tested on: HOP-18
[9] = tested on: RXF 631

| Compound | GI50 [1] | GI50 [3] | GI50 [4] | GI50 [5] | GI50 [6] | GI50 [7] | also measured |
| --- | --- | --- | --- | --- | --- | --- | --- |
| CN(C)c1ccc(/C=C2\Cc3ccccc3C2=O)cc1Br | 29.6 µM (inactive) | 59.8 µM (inactive) | 51.1 µM (inactive) | 33.8 µM (inactive) |  |  | GI50 [2]: 26.1 µM (inactive) |
| C=CCC1(C)CCCN(Cc2ccccc2)C1=O (configuration not stated) |  |  |  |  | > 10 µM (inactive) |  |  |
| C=CC(=O)NCCSCCCOC1(C(=O)O)CC(O)C(NC(C)=O)C(C(O)C(O)CO)O1 (configuration not stated) | > 100 µM (inactive) | > 100 µM (inactive) |  | > 100 µM (inactive) |  | > 100 µM (inactive) | GI50 [2]: > 100 µM (inactive) |
| O=C1c2sc(-c3ccc(Cl)cc3)cc2-n2cccc21 |  |  |  |  | > 100 µM (inactive) |  |  |
| CCOC(=O)N1CCc2cc(OC)c(OC)c3c2C1CC3=O (configuration not stated) | > 100 µM (inactive) | > 100 µM (inactive) | > 100 µM (inactive) | > 100 µM (inactive) |  | > 100 µM (inactive) | GI50 [8]: > 100 µM (inactive) |
| Cc1cc(O)nc2c3c(ccc12)OC(C)(C)C=C3 |  |  |  |  | 36.6 µM (inactive) |  |  |
| OCCN1CCN2C=C(C3CCCC4N(CCO)CCN34)CCC21 (configuration not stated) | 25.4 µM (inactive) | 37.9 µM (inactive) | 34.7 µM (inactive) | 43.8 µM (inactive) |  | 49.2 µM (inactive) | GI50 [2]: 48.1 µM (inactive); GI50 [8]: > 100 µM (inactive) |
| CC(=O)NC1C(OCc2ccccc2)OC(CO)C(O)C1OC(C)C(=O)NC(C)C(=O)N[C@@H](CCC(=O)OCCCNC1c2ccccc2Nc2cccc([N+](=O)[O-])c21)C(N)=O (some centres not stated) |  | 0.0121 µM (active) |  | < 0.01 µM (active) |  | < 0.01 µM (active) | GI50 [8]: < 0.01 µM (active) |
| C=C(C)C1Cc2c(cc3c(c2O)c(=O)c2ccccc2n3C)O1 (configuration not stated) |  |  |  |  | 1.72 µM (inactive) |  |  |
| Cc1cc2ccccc2n1CC(=O)N1CCCC1 |  |  |  |  | > 100 µM (inactive) |  |  |
| COC(=O)c1c(CC#N)cccc1CC#N | > 100 µM (inactive) |  | > 100 µM (inactive) | > 100 µM (inactive) |  | > 100 µM (inactive) | GI50 [2]: > 100 µM (inactive); GI50 [9]: > 100 µM (inactive) |
| COC(=O)OCC1OC(N2C(=O)NC(=O)C(Br)C2N=[N+]=[N-])CC1OC(=O)OC (configuration not stated) | > 100 µM (inactive) | > 100 µM (inactive) | > 100 µM (inactive) | > 100 µM (inactive) |  | > 100 µM (inactive) | GI50 [2]: > 100 µM (inactive) |
| O=C1c2ccccc2C(=O)N1C/C=N/NS(=O)(=O)c1ccc(F)cc1 | > 100 µM (inactive) |  | > 100 µM (inactive) | > 100 µM (inactive) |  | > 100 µM (inactive) | GI50 [2]: > 100 µM (inactive); GI50 [9]: > 100 µM (inactive) |
| CN(OC(=O)CC(=O)c1ccccc1)C(=O)Cc1ccccc1 | > 100 µM (inactive) | > 100 µM (inactive) | > 100 µM (inactive) | > 100 µM (inactive) |  |  | GI50 [9]: > 100 µM (inactive) |
| O=C(NCCCCCCCCCCCCNC(=O)Nc1cccc2ccccc12)Nc1cccc2ccccc12 |  |  |  |  | 14.4 µM (inactive) |  |  |
| CN(C)CCn1c(=O)c2ccc3c4c(nn3CCN(C)C)c3cc(O)ccc3n(c1=O)c24 |  |  |  |  | 0.879 µM (active) |  |  |
| Cn1c(=O)c2c(ncn2CCCCn2ccnc2[N+](=O)[O-])n(C)c1=O | > 100 µM (inactive) | > 100 µM (inactive) | > 100 µM (inactive) | > 100 µM (inactive) |  | > 100 µM (inactive) | GI50 [2]: > 100 µM (inactive) |
| Cc1c2ccccc2cc2nc3ccccc3n12 |  |  |  |  | > 10 µM (inactive) |  |  |
| COC(=O)c1ccccc1/C=C1\Cc2c(C)cc(C)cc2C1=O |  |  |  |  | > 100 µM (inactive) |  |  |
| O=C1NC(=O)C(CCC(=O)c2cccc3ccccc23)C(=O)N1 |  |  |  |  | > 100 µM (inactive) |  |  |
| COc1ccc(C2C(C#N)=C(S)N(C3OC(CO)C(O)C(O)C3O)C(C)=C2C(C)=O)cc1 (configuration not stated) |  |  |  |  | 92 µM (inactive) |  |  |
| CC(=S)N/C=C1/C(=O)C=C(C)OC1=O |  |  |  |  | > 100 µM (inactive) |  |  |
| O=C1Nc2c(Cl)cc(Cl)cc2/C1=N/Nc1ccccc1[N+](=O)[O-] |  |  |  |  | 9.68 µM (inactive) |  |  |
| CCCCC/C=C\C=C1\C(=O)C=C[C@@H]1C/C=C\CCCC(=O)O |  |  |  |  | 2.05 µM (inactive) |  |  |
| CC(=O)OC[C@]1(O)CC[C@@]23CC1C[C@@H]2CCC1C(C)(C)CCC[C@@]13C (some centres not stated) | 11.2 µM (inactive) | 16.1 µM (inactive) | 16 µM (inactive) | 11.2 µM (inactive) |  | 3.65 µM (inactive) | GI50 [2]: 14.1 µM (inactive); GI50 [9]: 14.2 µM (inactive) |
| O=C1N=C(Nc2ccccc2Cl)N/C1=C\c1ccc(Cl)cc1Cl |  |  |  |  | > 100 µM (inactive) |  |  |
| Cc1ccc(N/C(SCc2ccccc2)=C(\C(Cl)=C(Cl)Cl)[N+](=O)[O-])c(C)c1 |  |  |  |  | 19.2 µM (inactive) |  |  |
| CCN(CCN(CC)C(=O)NC)C(=O)NC |  |  |  |  | > 100 µM (inactive) |  |  |
| COC(=O)c1cc2c(cc1CC(Cc1ccc3c(c1)CCCC3)C(=O)OC)CCCC2 (configuration not stated) |  |  |  |  | > 100 µM (inactive) |  |  |
| COc1ccc2c(c1)CCC(CN1CCN(CCOC(c3ccc(F)cc3)c3ccc(F)cc3)CC1)=C2 |  |  |  |  | 13.6 µM (inactive) |  |  |
